Experimental data as given in patent US7816310B2, “Increased moisturization efficacy using hydroxyalkylurea and ammonium lactate” (Akzo Nobel N.V., priority 2003, dated 2010).

System: volar forearm of panellists with dry skin
Test: Skin Moisturization (Hydration), Corneometer CM 825
Assay type: in vivo
Conditions: 15% active, baseline 46.75
Experimental: Skin Moisturization (Hydration). Aqueous solutions (along with formulated lotions) were applied to the volar forearm of panellists with dry skin. Solutions tested contained between 2.5 and 15% active levels of Hydroxyalkylurea and various moisturizing agents. The various individual moisturizing agents were also used in combination with Hydroxyalkylurea and the relative moisture contents in the skin were compared. Moisture levels were measured using a Corneometer® CM 825 (available from CK Industries) prior to and at various time intervals after application of forty microliters of each sample (Temperature ˜21° C., Relative Humidity ˜35%).

SMILES: NC(=O)NCCO [HAU, N-2-hydroxyethylurea]
- Relative Skin Moisture Content (5 min after application): 56.56
- Relative Skin Moisture Content (30 min after application): 60.00
- Relative Skin Moisture Content (1 hr after application): 62.95
- Relative Skin Moisture Content (2 hr after application): 62.00
